Results taken from patent US9938262B2, “Benzamides” (Merck Patent GmbH, priority 2011, dated 2018).

Biological target: T1, FSHR (Homo sapiens, UniProt P23945)
T1 construct: expressed in transfected cells; host or cells: CHO (Cho-FSHR-LUC-1-1-43)
Assay: EC50 of cyclic AMP production in CHO FSHR cells + EC20 FSH (Assay A)
Assay type: cell-based
Details: CHO FSHR cells + EC20 FSH; Table 2; read-out: Assay A EC50 of cyclic AMP production
In short: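 cAMP HTRF ratio (665/620 nm) read after 1 h, 37 °C exposure of CHO-FSHR cells to compound in presence of EC20 FSH ([…]) and IBMX 200 μM. Responses given relative to FSH standard maximum; EC50 derived.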

T1 sequence (P23945 18-695): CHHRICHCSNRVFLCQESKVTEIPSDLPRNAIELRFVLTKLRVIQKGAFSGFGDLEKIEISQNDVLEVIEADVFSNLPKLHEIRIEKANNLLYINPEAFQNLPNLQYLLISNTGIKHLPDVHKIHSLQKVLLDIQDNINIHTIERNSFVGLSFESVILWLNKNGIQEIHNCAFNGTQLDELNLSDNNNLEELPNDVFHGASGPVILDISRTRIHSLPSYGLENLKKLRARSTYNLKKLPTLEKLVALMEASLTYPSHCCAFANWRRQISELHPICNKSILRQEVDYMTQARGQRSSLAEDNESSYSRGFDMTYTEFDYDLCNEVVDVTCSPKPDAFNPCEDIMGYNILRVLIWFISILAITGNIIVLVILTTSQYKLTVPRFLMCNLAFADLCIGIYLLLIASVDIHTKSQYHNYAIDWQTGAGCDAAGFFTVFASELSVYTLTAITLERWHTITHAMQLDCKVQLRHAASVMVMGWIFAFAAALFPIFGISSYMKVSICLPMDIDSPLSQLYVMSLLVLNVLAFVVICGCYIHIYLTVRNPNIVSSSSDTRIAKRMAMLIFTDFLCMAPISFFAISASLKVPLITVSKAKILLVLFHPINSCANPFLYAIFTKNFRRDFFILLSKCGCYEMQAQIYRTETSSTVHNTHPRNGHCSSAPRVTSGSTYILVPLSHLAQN
T1 sequence (P01215 25-116 partner): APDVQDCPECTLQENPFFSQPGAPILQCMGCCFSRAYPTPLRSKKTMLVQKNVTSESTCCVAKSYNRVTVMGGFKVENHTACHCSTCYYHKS
T1 sequence (P01225 19-129 partner): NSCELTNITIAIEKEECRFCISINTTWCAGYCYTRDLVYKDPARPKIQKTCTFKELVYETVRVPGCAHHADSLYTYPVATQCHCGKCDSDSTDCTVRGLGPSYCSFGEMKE

| EC50 [nM] | Compound |
| --- | --- |
| 100 to 1000 | Cc1ccccc1N1CCN(c2ccc(C(=O)NCCc3ccccc3C(N)=O)cc2NC(=O)c2coc(C3CC3)n2)CC1 [Compound 411] |
| 1000 to 10000 | Cc1ccccc1N1CCN(c2ccc(C(=O)Nc3ccnn3CC3CCOC3)cc2NC(=O)c2coc(C3CC3)n2)CC1 (stereo not drawn) [Compound 412] |
| 1000 to 10000 | Cc1cncnc1N1CCN(c2ccc(C(=O)NCCCN3CCCC3=O)cc2NC(=O)c2coc(C3CC3)n2)CC1 [Compound 413] |
| 100 to 1000 | Cc1ccccc1C1=CCN(c2ccc(C(=O)NCCCN3CCCC3=O)cc2NC(=O)c2coc(C3CC3)n2)CC1 [Compound 414] |
| > 10000 | Cc1ccccc1N1CCN(c2ccc(C(=O)NCCCN3CCCC3=O)cc2NC(=O)c2nccn2C)CC1 [Compound 415] |
| 100 to 1000 | Cc1ccccc1N1CCN(c2ccc(C(=O)NCCCNC(=O)OC(C)(C)C)cc2NC(=O)c2coc(C3CC3)n2)CC1 [Compound 416] |
| 1000 to 10000 | Cc1ccccc1N1CCN(c2ccc(C(=O)NCCCN)cc2NC(=O)c2coc(C3CC3)n2)CC1 [Compound 417] |
| 100 to 1000 | Cc1ccccc1N1CCN(c2ccc(C(=O)NCCCC(=O)N(C)C)cc2NC(=O)c2coc(C3CC3)n2)CC1 [Compound 418] |
| > 10000 | Cc1ccc(C(=O)Nc2cc(C(=O)NCCCN3CCCC3=O)ccc2N2CCN(c3ncncc3C)CC2)o1 [Compound 419] |
| > 10000 | Cc1cncnc1N1CCN(c2ccc(C(=O)NCCCN3CCCC3=O)cc2NC(=O)c2ccco2)CC1 [Compound 420] |
| > 10000 | Cc1ccccc1N1CCN(c2ccc(C(=O)NCCCN3CCCC3=O)cc2NC(=O)c2cncn2C)CC1 [Compound 421] |
| > 10000 | Cc1ccccc1N1CCN(c2ccc(C(=O)NCCCN3CCCC3=O)cc2NC(=O)c2coc(CN(C)C)n2)CC1 [Compound 422] |
| > 10000 | Cc1ccc(C(=O)Nc2cc(C(=O)NCCCN3CCCC3=O)ccc2N2CCC(N(C)c3ccccc3)CC2)o1 [Compound 423] |
| 100 to 1000 | CC(=O)NCCOCCOCCNC(=O)c1ccc(N2CCN(c3ccccc3C)CC2)c(NC(=O)c2coc(C3CC3)n2)c1 [Compound 424] |
| 100 to 1000 | Cc1ccccc1N1CCN(c2ccc(C(=O)NCCCNC(=O)NC(C)C)cc2NC(=O)c2coc(C3CC3)n2)CC1 [Compound 425] |
| 100 to 1000 | C=CCNC(=O)NCCCNC(=O)c1ccc(N2CCN(c3ccccc3C)CC2)c(NC(=O)c2coc(C3CC3)n2)c1 [Compound 426] |
| 100 to 1000 | CCCCNC(=O)NCCCNC(=O)c1ccc(N2CCN(c3ccccc3C)CC2)c(NC(=O)c2coc(C3CC3)n2)c1 [Compound 427] |
| > 10000 | Cc1ccccc1N1CCN(c2ccc(C(=O)NCCCNC(=O)Nc3ccc(C(F)(F)F)cc3)cc2NC(=O)c2coc(C3CC3)n2)CC1 [Compound 428] |
| 100 to 1000 | Cc1ccccc1N1CCN(c2ccc(C(=O)NCCCN3CCCC3=O)cc2NCc2cccc3cccnc23)CC1 [Compound 429] |
| 100 to 1000 | Cc1cnc(CCCNC(=O)c2ccc(N3CCN(c4ccccc4C)CC3)c(NC(=O)c3coc(C4CC4)n3)c2)s1 [Compound 430] |
| > 10000 | O=C(NCCCN1CCCC1=O)c1ccc(N2CCN(C(=O)C3CC3)CC2)c(NC(=O)c2coc(C3CC3)n2)c1 [Compound 431] |
| 1000 to 10000 | CC(C)C(=O)N1CCN(c2ccc(C(=O)NCCCN3CCCC3=O)cc2NC(=O)c2coc(C3CC3)n2)CC1 [Compound 432] |

| EC50 [nM] | Compound |
| --- | --- |
| 100 to 1000 | CCCNC(=O)NCCCNC(=O)c1ccc(N2CCN(c3ccccc3C)CC2)c(NC(=O)c2coc(C3CC3)n2)c1 [Compound 433] |
| 100 to 1000 | Cc1ccccc1N1CCN(c2ccc(C(=O)NCCCNC(=O)c3ccccc3)cc2NC(=O)c2coc(C3CC3)n2)CC1 [Compound 434] |
| 100 to 1000 | Cc1ccccc1N1CCN(c2ccc(C(=O)NCCCN3CCCC3=O)cc2NC(=O)c2coc(C3CC3)n2)CC1 [Compound 436] |
| 100 to 1000 | Cc1ccccc1N1CCN(c2ccc(C(=O)NCCc3cccc(CN(C)C)c3)cc2NC(=O)c2ccco2)CC1 [Compound 437] |
| 100 to 1000 | Cc1noc(CCCNC(=O)c2ccc(N3CCN(c4ccccc4C)CC3)c(NC(=O)c3coc(C4CC4)n3)c2)n1 [Compound 438] |
| < 100 | Cc1cccnc1N1CCN(c2ccc(C(=O)NCCCN3CCCC3=O)cc2NC(=O)c2coc(C3CC3)n2)CC1 [Compound 439] |
| 100 to 1000 | Cc1ccccc1N1CCN(c2ccc(C(=O)NCCCN3CCCC3=O)cc2NC(=O)c2ncc[nH]2)CC1 [Compound 440] |
| < 100 | Cc1ccccc1N1CCN(c2ccc(C(=O)NCCCNC(=O)C3CCOCC3)cc2NC(=O)c2coc(C3CC3)n2)CC1 [Compound 441] |
| 100 to 1000 | Cc1ccccc1N1CCN(c2ccc(C(=O)NCCCNC(=O)c3ccncc3)cc2NC(=O)c2coc(C3CC3)n2)CC1 [Compound 442] |
| 100 to 1000 | Cc1cccc(C(=O)NCCCNC(=O)c2ccc(N3CCN(c4ccccc4C)CC3)c(NC(=O)c3coc(C4CC4)n3)c2)n1 [Compound 443] |
| 100 to 1000 | Cc1cccnc1N1CCN(c2ccc(C(=O)NCCc3c[nH]cn3)cc2NC(=O)c2coc(C3CC3)n2)CC1 [Compound 444] |
| < 100 | CCC(=O)NCCCNC(=O)c1ccc(N2CCN(c3ccccc3C)CC2)c(NC(=O)c2coc(C3CC3)n2)c1 [Compound 445] |
| 100 to 1000 | Cc1ccccc1N1CCN(c2ccc(C(=O)NCCCNC(=O)C(C)C)cc2NC(=O)c2coc(C3CC3)n2)CC1 [Compound 446] |
| 100 to 1000 | Cc1ccccc1N1CCN(c2ccc(C(=O)NCCCNC(=O)C3CC3)cc2NC(=O)c2coc(C3CC3)n2)CC1 [Compound 447] |
| 100 to 1000 | Cc1ccccc1N1CCN(c2ccc(C(=O)NCCCNC(=O)C3CCC3)cc2NC(=O)c2coc(C3CC3)n2)CC1 [Compound 448] |
| 100 to 1000 | Cc1ccccc1N1CCN(c2ccc(C(=O)NCCCN3CCCC3=O)cc2NC(=O)c2ccc(C3CC3)o2)CC1 [Compound 449] |
| 100 to 1000 | Cc1ccccc1N1CCN(c2ccc(C(=O)NCCCN3CCCC3=O)cc2NC(=O)C(F)(F)F)CC1 [Compound 451] |
| 1000 to 10000 | Cc1cnccc1N1CCN(c2ccc(C(=O)NCCCN3CCCC3=O)cc2NC(=O)c2coc(C3CC3)n2)CC1 [Compound 452] |
| 100 to 1000 | Cc1ccccc1N1CCN(c2ccc(C(=O)NCCC#N)cc2NC(=O)c2coc(C3CC3)n2)CC1 [Compound 453] |
| 100 to 1000 | Cc1ccccc1N1CCN(c2ccc(C(=O)NCc3cccc(CN4CCCC4)c3)cc2NC(=O)c2ccco2)CC1 [Compound 454] |
| 100 to 1000 | Cc1ccccc1N1CCN(c2ccc(C(=O)NCc3ccc(CN(C)C)cc3)cc2NC(=O)c2ccco2)CC1 [Compound 455] |
| 100 to 1000 | Cc1ccccc1N1CCN(c2ccc(C(=O)NCc3ccccc3CN(C)C)cc2NC(=O)c2ccco2)CC1 [Compound 456] |

| EC50 [nM] | Compound |
| --- | --- |
| 1000 to 10000 | Cc1cnccc1N1CCN(c2ccc(C(=O)NCCc3cnc[nH]3)cc2NC(=O)c2coc(C3CC3)n2)CC1 [Compound 457] |
| 100 to 1000 | Cc1cncnc1N1CCN(c2ccc(C(=O)NCCCN3CCOC3=O)cc2NC(=O)c2coc(C3CC3)n2)CC1 [Compound 460] |
| 100 to 1000 | Cc1ccccc1N1CCN(c2ccc(C(=O)NCCCN3CCC(O)C3)cc2NC(=O)c2coc(C3CC3)n2)CC1 (stereo not drawn) [Compound 461] |
| 1000 to 10000 | Cc1cncnc1N1CCN(c2ccc(C(=O)NCCc3cn(C)cn3)cc2NC(=O)c2coc(C3CC3)n2)CC1 [Compound 462] |
| 100 to 1000 | Cc1ccc(C(=O)Nc2cc(C(=O)NCCCN3CCCC3=O)ccc2N2CCN(c3ncccc3C)CC2)o1 [Compound 463] |
| 1000 to 10000 | Cc1ccc(C(=O)Nc2cc(C(=O)NCCc3cn(C)cn3)ccc2N2CCN(c3ncccc3C)CC2)o1 [Compound 464] |
| 100 to 1000 | Cc1ccccc1N1CCN(c2ccc(C(=O)NCc3cccc(CN(C)C)n3)cc2NC(=O)c2coc(C3CC3)n2)CC1 [Compound 465] |
| 1000 to 10000 | Cc1ccccc1N1CCN(c2ccc(C(=O)NCCCN3CCCC3=O)cc2NC(=O)c2nnc(C3CC3)o2)CC1 [Compound 466] |
| < 100 | Cc1ccccc1N1CCN(c2ccc(C(=O)NCC(O)CN3CCCC3=O)cc2NC(=O)c2ccco2)CC1 (stereo not drawn) [Compound 467] |
| < 100 | Cc1ccccc1N1CCN(c2ccc(C(=O)NCCCN3CCNC3=O)cc2NC(=O)c2ccco2)CC1 [Compound 468] |
| 100 to 1000 | Cc1ccccc1N1CCN(c2ccc(C(=O)NCCCc3cccnc3)cc2NC(=O)c2ccco2)CC1 [Compound 469] |
| 100 to 1000 | Cc1ccccc1N1CCN(c2ccc(C(=O)NCCCN3CCCCC3=O)cc2NC(=O)c2ccco2)CC1 [Compound 470] |
| 100 to 1000 | Cc1ccccc1N1CCN(c2ccc(C(=O)NCc3cccc(CN4CCOCC4)c3)cc2NC(=O)c2ccco2)CC1 [Compound 471] |
| 100 to 1000 | Cc1ccccc1N1CCN(c2ccc(C(=O)NCCCCN3CCOCC3)cc2NC(=O)c2coc(C3CC3)n2)CC1 [Compound 472] |
| 100 to 1000 | CCN(CC)Cc1cccc(CNC(=O)c2ccc(N3CCN(c4ccccc4C)CC3)c(NC(=O)c3ccco3)c2)c1 [Compound 473] |
| < 100 | Cc1ccccc1N1CCN(c2ccc(C(=O)NCc3cccc(CN(C)C)n3)cc2NC(=O)c2ccco2)CC1 [Compound 474] |
| > 10000 | Cc1ccc(C(=O)Nc2cc(C(=O)NCCCN3CCCC3=O)ccc2N2CCN(c3ccncc3C)CC2)o1 [Compound 475] |
| < 100 | Cc1ccccc1N1CCN(c2ccc(C(=O)NCCCN3C(=O)[C@H]4C[C@@H]3C(O)C4O)cc2NC(=O)c2ccco2)CC1 (stereo partly drawn) [Compound 477] |
| < 100 | CCN(C)Cc1cccc(CNC(=O)c2ccc(N3CCN(c4ccccc4C)CC3)c(NC(=O)c3ccco3)c2)c1 [Compound 478] |
| 100 to 1000 | Cc1ccccc1N1CCN(c2ccc(C(=O)N[C@@H]3CCCC[C@@H](O)[C@H]3O)cc2NC(=O)c2coc(C3CC3)n2)CC1 [Compound 479] |
| < 100 | Cc1ccccc1N1CCN(c2ccc(C(=O)N[C@@H]3CCC[C@@H](O)[C@H]3O)cc2NC(=O)c2coc(C3CC3)n2)CC1 [Compound 480] |
| 100 to 1000 | Cc1ccccc1N1CCN(c2ccc(C(=O)Nc3cccc(N4CCCC4=O)c3)cc2NC(=O)c2coc(C3CC3)n2)CC1 [Compound 481] |
